Measured values: patent publication US11524966B1 (Valo Early Discovery, Inc., priority 2017, dated 2022)
Where two headings read alike, the source gives them in different places.

Target: T1, USP28 (His-tagged USP28-FL-mammalian) (Homo sapiens, UniProt Q96RU2)
T1 construct: Expression of USP28 (1-1077)-TEV-6*His (pTT5 vector); made in house; host or cells: Expi293f cells (pTT5 vector)
T1 sequence (Q96RU2 1-1077): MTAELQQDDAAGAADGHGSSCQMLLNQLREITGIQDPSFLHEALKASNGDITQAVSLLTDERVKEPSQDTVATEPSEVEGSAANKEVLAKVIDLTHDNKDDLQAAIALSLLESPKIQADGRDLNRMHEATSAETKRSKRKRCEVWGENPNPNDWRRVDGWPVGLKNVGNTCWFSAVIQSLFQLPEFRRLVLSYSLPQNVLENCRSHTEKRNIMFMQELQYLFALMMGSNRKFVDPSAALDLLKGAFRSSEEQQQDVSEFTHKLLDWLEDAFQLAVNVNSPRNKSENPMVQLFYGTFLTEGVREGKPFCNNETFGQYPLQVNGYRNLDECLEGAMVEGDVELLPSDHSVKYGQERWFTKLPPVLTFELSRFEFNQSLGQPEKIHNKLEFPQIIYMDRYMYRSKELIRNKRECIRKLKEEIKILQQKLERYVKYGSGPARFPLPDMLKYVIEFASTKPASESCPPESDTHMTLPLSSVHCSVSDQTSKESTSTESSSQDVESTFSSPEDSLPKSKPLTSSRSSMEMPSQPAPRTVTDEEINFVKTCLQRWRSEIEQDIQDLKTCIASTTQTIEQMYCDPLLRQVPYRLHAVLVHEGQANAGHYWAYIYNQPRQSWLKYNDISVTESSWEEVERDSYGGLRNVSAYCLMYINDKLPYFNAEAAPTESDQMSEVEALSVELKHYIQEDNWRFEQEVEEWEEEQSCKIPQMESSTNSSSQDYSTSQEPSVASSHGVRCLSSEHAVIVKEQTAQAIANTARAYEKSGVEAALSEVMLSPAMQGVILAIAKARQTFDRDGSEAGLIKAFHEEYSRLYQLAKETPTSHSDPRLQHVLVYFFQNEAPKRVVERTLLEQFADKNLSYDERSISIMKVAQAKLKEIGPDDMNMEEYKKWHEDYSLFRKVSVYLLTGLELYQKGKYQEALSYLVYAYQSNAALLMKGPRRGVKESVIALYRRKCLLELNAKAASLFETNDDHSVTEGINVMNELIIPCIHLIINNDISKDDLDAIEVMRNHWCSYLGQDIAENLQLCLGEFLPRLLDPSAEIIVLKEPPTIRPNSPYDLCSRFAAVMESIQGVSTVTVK
Assay: Ubiquitin-Rhodamine 110 Assay for USP28 Activity, Example A-1(a)
Assay type: biochemical
Settings: Ubiquitin-Rhodamine 110 assay, read-out: USP28 A-1(a) IC50 range
Outline: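 Full-length His-tagged human USP28 (1-1077, Expi293f-expressed), […], with 25 nM Ub-Rh110 (<<Km) in pH 8.0 Tris buffer with BME, BGG, Triton X-100. 10-point dilutions (25 μM-1.3 nM), 45 min at room temperature, citric acid stop, fluorescence 485/535 nm; IC50 by 4-parameter fit.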

SMILES | IC50 (Example A-1(a)) | IC50 (format Example A-1(a))
Cc1cnc2c(N)c(C(=O)N[C@H]3CCc4cc(N5CCNC[C@@H](O)C5)ccc4C3)sc2n1 (single isomer, unassigned) [Example 7-4] | 50 to 200 nM | –
Cc1cnc2c(N)c(C(=O)N[C@@H]3CCc4cc(N5CCNC[C@@H](O)C5)ccc4C3)sc2n1 (single isomer, unassigned) [Example 7-5] | 50 to 200 nM | –
Cc1cnc2c(N)c(C(=O)N[C@H]3CCc4cc(N5CCNC[C@H](O)C5)ccc4C3)sc2n1 (single isomer, unassigned) [Example 7-6] | 200 to 2000 nM | –
Cc1cnc2c(N)c(C(=O)N[C@@H]3CCc4cc(N5CCNC[C@H](O)C5)ccc4C3)sc2n1 (single isomer, unassigned) [Example 7-7] | 200 to 2000 nM | –
Cc1ccc2c(N)c(C(=O)N[C@H]3CCc4cc(N5CCN[C@H](CO)C5)ccc4C3)sc2n1 (single isomer, unassigned) [Example 7-8] | 200 to 2000 nM | –
Cc1ccc2c(N)c(C(=O)N[C@H]3CCc4cc(N5CCN[C@@H](CO)C5)ccc4C3)sc2n1 (single isomer, unassigned) [Example 7-9] | 200 to 2000 nM | –
Cc1ccc2c(N)c(C(=O)N[C@@H]3CCc4cc(N5CCN[C@H](CO)C5)ccc4C3)sc2n1 (single isomer, unassigned) [Example 7-10] | 50 to 200 nM | –
Cc1ccc2c(N)c(C(=O)N[C@@H]3CCc4cc(N5CCN[C@@H](CO)C5)ccc4C3)sc2n1 (single isomer, unassigned) [Example 7-11] | 50 to 200 nM | –
Cc1ccc2c(N)c(C(=O)N[C@H]3COc4cc(O[C@@H]5COC6(CNC6)C5)ccc4C3)sc2n1 (single isomer, unassigned) [Example 9-1] | 1 to 50 nM | –
Cc1ccc2c(N)c(C(=O)N[C@H]3COc4cc(O[C@H]5COC6(CNC6)C5)ccc4C3)sc2n1 (single isomer, unassigned) [Example 9-2] | 1 to 50 nM | –
CO[C@H]1CN(c2cc(F)c3c(c2)OC[C@H](NC(=O)c2sc4nc(C)ccc4c2N)C3)C[C@@H]1N (single isomer, unassigned) [Example 10-3] | 1 to 50 nM | –
Cc1nc2sc(C(=O)N[C@H]3CCc4cc(N5CC6CCC(C5)N6)ccc4C3)c(N)c2cc1F (single isomer, unassigned) [Example 11-3] | 50 to 200 nM | –
Cc1nc2sc(C(=O)N[C@@H]3CCc4cc(N5CC6CCC(C5)N6)ccc4C3)c(N)c2cc1F (single isomer, unassigned) [Example 11-4] | 1 to 50 nM | –
COc1ccc2c(N)c(C(=O)N[C@H]3CCc4cc(N5CC6CCC(C5)N6)ccc4C3)sc2n1 (single isomer, unassigned) [Example 11-5] | 1 to 50 nM | –
COc1ccc2c(N)c(C(=O)N[C@@H]3CCc4cc(N5CC6CCC(C5)N6)ccc4C3)sc2n1 (single isomer, unassigned) [Example 11-6] | 200 to 2000 nM | –
Cc1cnc2c(N)c(C(=O)N[C@H]3CCc4cc(N5CC6CCC(C5)N6)ccc4C3)sc2n1 (single isomer, unassigned) [Example 11-7] | 50 to 200 nM | –
Cc1cnc2c(N)c(C(=O)N[C@@H]3CCc4cc(N5CC6CCC(C5)N6)ccc4C3)sc2n1 (single isomer, unassigned) [Example 11-8] | 200 to 2000 nM | –
CCn1ccc2cc(C(=O)N[C@H]3CCc4cc(N5CC6CCC(C5)N6)ccc4C3)cnc21 (single isomer, unassigned) [Example 11-9] | 200 to 2000 nM | –
CCn1ccc2cc(C(=O)N[C@@H]3CCc4cc(N5CC6CCC(C5)N6)ccc4C3)cnc21 (single isomer, unassigned) [Example 11-10] | 50 to 200 nM | –
Cc1ccc2c(N)c(C(=O)N[C@H]3CCc4cc(N5CCNCC5)cc(F)c4C3)sc2n1 (single isomer, unassigned) [Example 11-11] | 200 to 2000 nM | –
Cc1ccc2c(N)c(C(=O)N[C@@H]3CCc4cc(N5CCNCC5)cc(F)c4C3)sc2n1 (single isomer, unassigned) [Example 11-12] | 1 to 50 nM | –
Cc1cnc2c(N)c(C(=O)N[C@H]3CCc4cc(N5CC6CCC(C5)N6)cc(F)c4C3)sc2n1 (single isomer, unassigned) [Example 11-13] | 200 to 2000 nM | –
Cc1cnc2c(N)c(C(=O)N[C@@H]3CCc4cc(N5CC6CCC(C5)N6)cc(F)c4C3)sc2n1 (single isomer, unassigned) [Example 11-14] | 1 to 50 nM | –

SMILES | IC50 (Example A-1(a)) | IC50 (format Example A-1(a))
Cc1ccc2c(N)c(C(=O)N[C@@H]3COc4cc(N5CCNCC5)ccc4[C@@H]3C)sc2n1 (single isomer, unassigned) [Example 11-18] | > 2000 nM | –
CCn1ccc2cc(C(=O)N[C@@H]3CCc4cc(N5CC6CCC(C5)N6)ccc4C3)nnc21 (single isomer, unassigned) [Example 11-23] | 200 to 2000 nM | –
CCn1ccc2cc(C(=O)N[C@H]3CCc4cc(N5CC6CCC(C5)N6)ccc4C3)nnc21 (single isomer, unassigned) [Example 11-24] | 200 to 2000 nM | –
Cc1ccc2c(N)c(C(=O)N[C@H]3CCc4cc(N5C6CNCC5C6)ccc4C3)sc2n1 (single isomer, unassigned) [Example 11-35] | – | 1 to 50 nM
Cc1ccc2c(N)c(C(=O)N[C@@H]3CCc4cc(N5C6CNCC5C6)ccc4C3)sc2n1 (single isomer, unassigned) [Example 11-36] | – | 200 to 2000 nM
Cc1nc2sc(C(=O)N[C@H]3CCc4cc(N5CC6CCC(C5)N6)ccc4C3)c(N)c2s1 (single isomer, unassigned) [Example 12-1] | – | 200 to 2000 nM
Cc1ccc2c(N)c(C(=O)N[C@H]3COc4c(F)c(N5CC6CCC(C5)N6)cc(F)c4C3)sc2n1 (single isomer, unassigned) [Example 13-1] | – | 1 to 50 nM
Cc1ccc2c(N)c(C(=O)N[C@@H]3COc4c(F)c(N5CC6CCC(C5)N6)cc(F)c4C3)sc2n1 (single isomer, unassigned) [Example 13-2] | – | 200 to 2000 nM
Cc1ccc2c(N)c(C(=O)N[C@@H]3COc4cc(N5CCNCC5)c(Cl)cc4C3)sc2n1 (single isomer, unassigned) [Example 13-6] | – | 1 to 50 nM
Cc1nc2sc(C(=O)N[C@@H]3CCc4c(C#N)c(N5CC6CCC(C5)N6)cc(F)c4C3)c(N)c2s1 (single isomer, unassigned) [Example 14-22] | – | 200 to 2000 nM
Cc1ccc2c(N)c(C(=O)N[C@@H]3CCc4cc(N5CCNCC5)cnc4C3)sc2n1 (single isomer, unassigned) [Example 15-1] | – | > 2000 nM
Cc1ccc2c(N)c(C(=O)N[C@H]3CCc4cc(N5CCNCC5)cnc4C3)sc2n1 (single isomer, unassigned) [Example 15-2] | – | 200 to 2000 nM
Cc1ccc2c(N)c(C(=O)N[C@@H]3CCc4c(ccc(N5CC6CCC(C5)N6)c4F)C3)sc2n1 (single isomer, unassigned) [Example 21-1] | – | 50 to 200 nM
Cc1ccc2c(N)c(C(=O)N[C@H]3CCc4c(ccc(N5CC6CCC(C5)N6)c4F)C3)sc2n1 (single isomer, unassigned) [Example 21-2] | – | 1 to 50 nM
Cc1ccc2c(N)c(C(=O)N[C@@H]3CCc4cc(N5CC6CCC(C5)N6)c(F)cc4C3)sc2n1 (single isomer, unassigned) [Example 21-3] | – | 1 to 50 nM
Cc1ccc2c(N)c(C(=O)N[C@H]3CCc4cc(N5CC6CCC(C5)N6)c(F)cc4C3)sc2n1 (single isomer, unassigned) [Example 21-4] | – | 200 to 2000 nM
Cc1ccc2c(N)c(C(=O)N[C@@H]3CCc4c(ccc(N5CCNCC5)c4F)C3)sc2n1 (single isomer, unassigned) [Example 21-5] | – | 1 to 50 nM
Cc1ccc2c(N)c(C(=O)N[C@H]3CCc4c(ccc(N5CCNCC5)c4F)C3)sc2n1 (single isomer, unassigned) [Example 21-6] | – | 200 to 2000 nM
Cc1ccc2c(N)c(C(=O)N[C@@H]3CCc4cc(N5CCNCC5)c(F)cc4C3)sc2n1 (single isomer, unassigned) [Example 21-7] | – | 50 to 200 nM
Cc1ccc2c(N)c(C(=O)N[C@H]3CCc4cc(N5CCNCC5)c(F)cc4C3)sc2n1 (single isomer, unassigned) [Example 21-8] | – | 200 to 2000 nM
Cc1ccc2c(N)c(C(=O)N[C@H]3CCc4c(F)c(N5CCNCC5)cc(F)c4C3)sc2n1 (single isomer, unassigned) [Example 22-1] | – | 200 to 2000 nM
Cc1ccc2c(N)c(C(=O)N[C@@H]3CCc4c(F)c(N5CCNCC5)cc(F)c4C3)sc2n1 (single isomer, unassigned) [Example 22-2] | – | 1 to 50 nM
